According to patent US12208181B2, “Medication infusion components and systems” (MEDTRONIC MINIMED, INC., priority 2017, dated 2025):
Entries after “also recorded” stand apart in the source; their conditions may differ.

Columns and labels:
[1] = tested on: diabetic porcine model; assay: Insulin infusion site-loss study in diabetic porcine model (extended wear infusion set); format: in vivo, pig; conditions: for Effect on site-loss compared with control: diabetic pigs, agent given with insulin (Humalog) infusion, control without agent; for No site loss for: Sof-Set
Method: The objectives of this study include duplicating the site-loss phenomena observed in previous studies using a diabetic porcine model. Additionally, various infusion set configurations are evaluated for reducing site-loss and extending infusion set wear. Further, site-loss is mitigated using a response-inhibiting agent and/or infusion pump to increase reliability of wear for 3 days and extend infusion set wear beyond 3 days.
The objectives of this study include: duplicating the site-loss phenomena observed in previous studies using the diabetic porcine model; using the established diabetic porcine model to evaluate the effects of various infusion set designs on infusion site-loss; and testing if site-loss can be mitigated by direct pump infusing of immunosuppressant/anti-inflammatory drugs, and/or by modifying infusion set by drug coating.
This study is designed so that each set (inserted under anesthesia) is to be worn for 1 week unless there was set failure/dislodge. Glucose is monitored by a blood glucose meter and Enlite™ sensor. The criteria for determining site loss is that blood glucose is greater than 350 mg/dl and fails to decrease following an insulin dose correction. During biopsy pumps are removed but the cannula is maintained in-situ. Site skin is examined for edema/erythema (swell/redness) (see FIG. 8).

[2] = tested on: diabetic porcine model; assay: Local toxicity observation in diabetic porcine model; conditions: prefilled heparin/insulin, Sof-Set; heparin 100-800 U/mL insulin (U100)
[3] = tested on: diabetic Yucatan pigs; assay: Site-loss evaluation during CSII (Example 1); format: in vivo
Description: (§1) The goal of studying insulin infusion site-loss using a diabetic porcine model is to establish the methods and animal model necessary to reproduce the phenomenon of site-loss in Continuous Subcutaneous Insulin Infusion (CSII). Methodologies are established for evaluating infusion sites in healthy and diabetic pigs, including device placement and animal management, glucose monitoring, insulin detection, pharmacokinetics, site harvesting, and pathological evaluation. The host response to implanted functional devices is assessed in healthy and diabetic pigs. Parameters that are believed to impact site-loss are varied until site-loss is observed.
Site-loss was evaluated using a criteria of a prolonged high blood glucose level (greater than 350 mg/dl) as well as being ineffectively controlled by increasing insulin basal/bolus rate. Site-loss observed was pig dependent, sometimes site-dependent. […] The other two pigs (#341425 and #341426) had no site-loss in 7 days if a proper site was located. In general, the pigs with observed site-loss were less responsive to a Humalog™ dose. Histologically, the predominant tissue response was inflammation and, with longer infusion, fibrosis. Inflammation scores trended to be of higher grade in diabetic pigs compared to normal pigs, with a larger inflammation area around the catheter tip. […]

[4] = tested on: normal and diabetic Yucatan pigs; assay: PK/PD study: blood glucose response to Humalog; format: in vivo
Description: as §1

[5] = tested on: diabetic pig; assay: Histopathology of infusion sites (inflammation at catheter tip and body); format: in vivo
Description: FIG. 2A is a series of histologic evaluations at the catheter tip showing the inflammatory response (score), and size of the area with tissue reaction. “*” indicates the catheter location and “F” indicates normal fat. […] FIG. 2B is a series of graphs illustrating the inflammation at the catheter tip for diabetic and non-diabetic pigs. Localized inflammation loosely correlated with site-loss.
FIG. 2C is a series of graphs illustrating the predominate inflammation cells at the catheter tip and catheter body (qualitative). To isolate the main inflammation contributors, a catheter, a catheter infused with insulin (Humalog™), and a catheter infused with placebo were placed on a diabetic pig at the same time.
FIG. 2D is a series of graphs illustrating the predominate inflammation cells at the catheter tip and catheter body of an insulin injection port (i-Port™). To isolate the main inflammation contributors, a catheter, a catheter infused with insulin, and a catheter infused with placebo were placed on a diabetic pig. Compared to continuous infusion, the giant cells are missing in the i-Port™ study. […] As observed by the pathologist, the pigs may have developed a hypersensitivity to the Humalog™ and such a reaction would contribute to the inflammation seen (the degree that hypersensitivity is influencing the inflammation is unclear but it could be one of the main drivers).

[6] = diabetic pigs, compared to catheter and placebo

dextran
Infusion site active ([1]; Sof-Set with dextran dosed insulin (FIG. 22)): up to 6 days
Effect on site-loss compared with control [1]: performing significantly better than the control
Efficacy in extending infusion set wear / site-loss mitigation (in words) ([1]; diabetic porcine model): efficacy of dextran in extending infusion set wear

CO[C@H]1C[C@@H]2CC[C@@H](C)[C@@](O)(O2)C(=O)C(=O)N2CCCC[C@H]2C(=O)O[C@H]([C@H](C)C[C@@H]2CC[C@@H](O)[C@H](OC)C2)CC(=O)[C@H](C)/C=C(\C)[C@@H](O)[C@@H](OC)C(=O)[C@H](C)C[C@H](C)/C=C/C=C/C=C/1C [rapamycin]
Effect on Site-Loss: site-loss after / duration of wear ([1]; 1 pig using Sof-Set, rapamycin later found degraded in solution after use): 5 days
Signs of improvement: recovery after ([1]; rapamycin dosed with Humalog): around 6 days
No site loss for ([1]; rapamycin spiked in insulin, around 0.6 μg/day): more than 6 days

heparin
Infusion site active ([1]; Sof-Set with heparin dosed insulin (FIGS. 17, 18)): up to 13 days
Site-loss (glucose monitoring) ([1]; U100 Humalog with heparin sodium, actual 3.55 mg/mL or 685 U/mL, continuous infusion, pigs IM3 and IM4): > 6 days
Effect on site-loss compared with control [1]: performing significantly better than the control
No site loss for ([1]; prefilled heparin/insulin, heparin 100-800 U/mL insulin (U100)): greater than 13 days
Local toxicity [2]: No local toxicity was observed

C[C@@H]1C[C@H]2[C@@H]3CCC4=CC(=O)C=C[C@]4(C)[C@@]3(F)[C@@H](O)C[C@]2(C)[C@@]1(O)C(=O)COP(=O)(O)O [DXP, Dexamethasone Phosphate]
Effect on site-loss compared with control [1]: performing significantly worse than the control

Insulin lispro [Humalog]
Site-loss observed at ([3]; pigs #341423 and #341424, blood glucose >350 mg/dl criterion): approximately 3 days
No site-loss in ([3]; pigs #341425 and #341426, if a proper site was located): > 7 days
Blood glucose lowering [4]: effectively lower blood glucose level
Order of evaluated inflammation scores ([5]; catheter, catheter infused with insulin (Humalog), catheter infused with placebo on one diabetic pig): insulin≥placebo≥catheter; also recorded: insulin≥placebo≥cannula
Localized inflammation [5, 6]: associated with increased localized inflammation
Localized tissue fibrosis [5, 6]: main contributor to localized tissue fibrosis

C[C@H]1C[C@H]2[C@@H]3CCC4=CC(=O)C=C[C@]4(C)[C@@]3(F)[C@@H](O)C[C@]2(C)[C@@]1(O)C(=O)COP(=O)([O-])[O-].[Na+].[Na+] [BSP, Betamethasone Sodium phosphate]
Effect on site-loss compared with control [1]: performing significantly worse than the control
